According to BigSolDB 2.1:

Nc1ncnc2c1ncn2[C@@H]1O[C@H](COP(=O)(O)O)[C@@H](O)[C@H]1O
solubility (mole fraction)
Details | in acetic acid | in ethanol | in methanol | in water
288.15 K | 7.85e-05 | 5.3e-06 | 8.59e-06 | –
288.2 K | – | – | – | 0.000257
294.15 K | 0.000122 | 5.61e-06 | 9.35e-06 | –
294.2 K | – | – | – | 0.000336
300.15 K | 0.000186 | 6.75e-06 | 1.04e-05 | –
300.2 K | – | – | – | 0.000412
306.15 K | 0.000276 | 7.73e-06 | 1.15e-05 | –
306.2 K | – | – | – | 0.000526
312.15 K | 0.000395 | 9.24e-06 | 1.3e-05 | –
312.2 K | – | – | – | 0.000636
318.15 K | 0.000564 | 1.06e-05 | 1.41e-05 | –
318.2 K | – | – | – | 0.000768
324.15 K | 0.00075 | 1.24e-05 | 1.65e-05 | –
324.2 K | – | – | – | 0.000934
330.15 K | 0.000967 | 1.54e-05 | 1.79e-05 | –
